Converted amounts (≈) assume the structure as drawn. Read-outs that look alike come from different tables or passages of the source.
Columns and labels:
Type in all cases: cell-based
[1] = system: Corynebacterium xerosis FF; assay: MIC, agar diffusion, Corynebacterium xerosis FF; conditions: read-out: in vitro activities MIC
Text: (§1) In vitro investigations have shown a relatively high potency of compounds of the invention against all bacteria including gram-positive and gram-negative strains (Staphylococci, Streptococci, Corynebacteriae, Mycobacteriae, Proteus, Propionibacterium, Pseudomonas, Neisseriae, E. coli) and fungal strains (Candida and Aspergillus). […] In addition, the studies of post-antibiotic effects point towards a strong bactericidal effect of the compounds of the invention. […] The potency of new polyaminated fusidic acid analogues is estimated by comparing the inhibition of growth of different microorganisms produced by known concentrations of the analogue to be examined and a reference compound such as fusidic acid. The microbiological assay set up is in agreement with the European Pharmacopoeia 3rd edition (1997). It is an agar diffusion method where the same volume of the tested solution is added to cavities in agar. The inhibition zones are function of the concentration of the fusidic acid analogue used. All assays are run with fusidic acid as reference substance.

S. aureus CJ234R = assay: MIC, agar diffusion, S. aureus CJ234R; conditions: Staphylococcus aureus, read-out: in vitro activities MIC
Text: as §1

Asbergillus niger ZM35 = assay: MIC, agar diffusion, Asbergillus niger ZM35; conditions: Aspergillus niger, read-out: in vitro activities MIC
Text: as §1

S. aureus N6 = assay: MIC, agar diffusion, S. aureus N6; conditions: Staphylococcus aureus; S. aureus N6 (Fus. resistant); read-out: in vitro activities MIC
Text: as §1

[2] = system: Propionibacterium acnes FN33; assay: MIC, agar diffusion, Propionibacterium acnes FN33; conditions: Cutibacterium acnes, read-out: in vitro activities MIC
Text: as §1

S. epidermis CK5 = assay: MIC, agar diffusion, S. epidermis CK5; conditions: Staphylococcus epidermidis, read-out: in vitro activities MIC
Text: as §1

S. aureus CJ247 = assay: MIC, agar diffusion, S. aureus CJ247; conditions: Staphylococcus aureus, read-out: in vitro activities MIC
Text: as §1

[3] = system: Pseudomonas aeruginosa BA17; assay: MIC, agar diffusion, Pseudomonas aeruginosa BA17; conditions: read-out: in vitro activities MIC
Text: as §1

S. aureus CJ200 = assay: MIC, agar diffusion, S. aureus CJ200; conditions: Staphylococcus aureus, read-out: in vitro activities MIC
Text: as §1

S. aureus CJ234F = assay: MIC, agar diffusion, S. aureus CJ234F; conditions: Staphylococcus aureus; S. aureus CJ234F (MRSA, Fus. resistant); read-out: in vitro activities MIC
Text: as §1

Candida albicans ZA = assay: MIC, agar diffusion, Candida albicans ZA; conditions: read-out: in vitro activities MIC
Text: as §1

E. coli HA165 = assay: MIC, agar diffusion, E. coli HA165; conditions: Escherichia coli, read-out: in vitro activities MIC
Text: as §1

[4] = system: Streptococcus pyogenes EC88; assay: MIC, agar diffusion, Streptococcus pyogenes EC88; conditions: read-out: in vitro activities MIC
Text: as §1

[5] = system: Saccaromyces cervisiae ZZ7; assay: MIC, agar diffusion, Saccaromyces cervisiae ZZ7; conditions: Saccharomyces cerevisiae, read-out: in vitro activities MIC
Text: as §1

[6] = system: Streptococcus faecium EI19; assay: MIC, agar diffusion, Streptococcus faecium EI19; conditions: Enterococcus faecium; Streptococcus faecium EI19 (Penicillin resistant); read-out: in vitro activities MIC
Text: as §1

Compound | MIC [1] | MIC (S. aureus CJ234R; MRSA) | MIC (Asbergillus niger ZM35) | MIC (S. aureus N6) | MIC [2] | MIC (S. epidermis CK5) | MIC (S. aureus CJ247) | MIC [3] | MIC (S. aureus CJ200) | MIC (S. aureus CJ234F) | MIC (Candida albicans ZA) | MIC (E. coli HA165) | MIC [4] | MIC [5] | MIC [6] | MIC (S. aureus CJ234R; S. aureus CJ234R (MRSA, Rifampicin resistant))
CC(=O)O[C@H]1C[C@@]2(C)C(C[C@@H](O)C3[C@@]4(C)CC[C@@H](OC(C)=O)[C@@H](C)C4CC[C@@]32C)[C@@H]1[C@H](CCCC(C)C)C(=O)NCCCNCCCCNCCCN (stereo partly drawn) [Compound 173, 21-N-[3′-({4′-[(3′-aminopropyl)amino]butyl}amino)propyl]-3-OAc-17R,20S,24,25-tetrahydrofusid-21-amide] | 4 µg/mL (≈ 5.35 µM) | 1 µg/mL (≈ 1.34 µM) | 125 µg/mL (≈ 167 µM) | 4 µg/mL (≈ 5.35 µM) | 4 µg/mL (≈ 5.35 µM) | 1 µg/mL (≈ 1.34 µM) | 4 µg/mL (≈ 5.35 µM) | 4 µg/mL (≈ 5.35 µM) | 4 µg/mL (≈ 5.35 µM) | 4 µg/mL (≈ 5.35 µM) | 125 µg/mL (≈ 167 µM) | 4 µg/mL (≈ 5.35 µM) | 4 µg/mL (≈ 5.35 µM) | 4 µg/mL (≈ 5.35 µM) | – | –
CC(=O)O[C@H]1C[C@@]2(C)C(C[C@@H](O)C3[C@@]4(C)CC[C@@H](OC(C)=O)[C@@H](C)C4CC[C@@]32C)[C@@H]1[C@H](CCCC(C)C)C(=O)NCCCNCCCNCCCN (stereo partly drawn) [Compound 172, 21-N-[3′-({3′-[(3′-aminopropyl)amino]propyl}amino)propyl]-3-OAc-17R,20S,24,25-tetrahydrofusid-21-amide] | 4 µg/mL (≈ 5.46 µM) | 1 µg/mL (≈ 1.36 µM) | 64 µg/mL (≈ 87.3 µM) | 4 µg/mL (≈ 5.46 µM) | 1 µg/mL (≈ 1.36 µM) | 4 µg/mL (≈ 5.46 µM) | 4 µg/mL (≈ 5.46 µM) | 4 µg/mL (≈ 5.46 µM) | 4 µg/mL (≈ 5.46 µM) | 4 µg/mL (≈ 5.46 µM) | 64 µg/mL (≈ 87.3 µM) | 4 µg/mL (≈ 5.46 µM) | 4 µg/mL (≈ 5.46 µM) | 64 µg/mL (≈ 87.3 µM) | – | –
CC(C)CCCC(C(=O)NCCCNCCCNCCCN)[C@@H]1CC[C@@]2(C)C1C[C@@H](O)C1[C@@]3(C)CC[C@@H](O)[C@@H](C)C3CC[C@@]12C (stereo partly drawn) [Compound 145, 21-N-{[3′-({3′-[(3′-aminopropyl)amino]propyl}amino)propyl]}-16-desacetoxy-17R,20S,24,25-tetrahydrofusid-21-amide] | 1 µg/mL (≈ 1.58 µM) | 4 µg/mL (≈ 6.32 µM) | > 125 µg/mL | 1 µg/mL (≈ 1.58 µM) | 1 µg/mL (≈ 1.58 µM) | 1 µg/mL (≈ 1.58 µM) | 1 µg/mL (≈ 1.58 µM) | 4 µg/mL (≈ 6.32 µM) | 1 µg/mL (≈ 1.58 µM) | 1 µg/mL (≈ 1.58 µM) | > 125 µg/mL | 4 µg/mL (≈ 6.32 µM) | 4 µg/mL (≈ 6.32 µM) | 4 µg/mL (≈ 6.32 µM) | 4 µg/mL (≈ 6.32 µM) | –
CC(=O)O[C@H]1C[C@@]2(C)[C@@H](C[C@@H](O)[C@H]3[C@@]4(C)CC[C@@H](O)[C@@H](C)[C@@H]4CC[C@@]32C)/C1=C(\CCC=C(C)C)C(=O)O [FA, fusidic acid] | 0.1 µg/mL (≈ 0.194 µM) | – | > 64 µg/mL | 16 µg/mL (≈ 31 µM) | 0.2 µg/mL (≈ 0.387 µM) | 0.02 µg/mL (≈ 0.0387 µM) | 0.02 µg/mL (≈ 0.0387 µM) | > 64 µg/mL | 0.02 µg/mL (≈ 0.0387 µM) | 16 µg/mL (≈ 31 µM) | > 64 µg/mL | > 64 µg/mL | 16 µg/mL (≈ 31 µM) | > 64 µg/mL | – | 0.02 µg/mL (≈ 0.0387 µM)
